What was measured:
[1] = system: guinea pigs (citric acid-induced cough); experiment: citric acid cough challenge in guinea pigs; assay type: in vivo, guinea pig; settings: for percentage (%) reduction of number of coughs / percentage (%) of reduction of number of cough efforts: mean±SEM
Experimental: Evaluation of the activities of Compound Ia and tiotropium bromide in an animal cough challenge model.
Male Dunkin-Hartley guinea pigs (250-350 g, Charles-River, Italy) were acclimatized in cages, (24±0.5° C.) for 1 week after delivery, with free access to water and standard rodent diet. One group of guinea pigs was actively sensitized by an intra-peritoneal injection of ovalbumin (100 mg/kg) followed by a subcutaneous injection of ovalbumin (100 mg/kg). Controls received the vehicle alone (0.9% NaCl).
After the period of acclimatization to laboratory conditions, animals were individually placed in a transparent perspex box (20×10×10 cm, Vetrotecnica, Italy) ventilated with a constant airflow of 400 ml/minute. A tussive agent (citric acid, 0.25 M) was nebulized via a mini-ultrasonic nebulizer (Ugo Basile, Italy). […] The numbers of elicited cough efforts were counted by a blind observer.
All experiments were carried out at the same time of day, starting at 9.00 a.m. Guinea-pigs received Compound Ia (1 mM) or tiotropium bromide (0.3 mM) or their vehicle (distilled water) for 10 minutes by aerosol at least 3 hour before the citric acid challenge (0.25 M; for 10 minute; by aerosol), in order to elicit cough.
Values are presented as mean±SEM. Comparisons among groups were made by one way analysis of variance (ANOVA) and the Student's t-test or the Bonferroni's test when appropriate. A p value of <0.05 was considered significant.

postviral coughing = settings: inhaled, relative to placebo; cited from earlier work
[2] = system: adult nonsmokers with acute viral upper respiratory tract infection; settings: once daily 18 μg by inhalation for 7 days; cited from earlier work
[3] = system: ovalbumin-sensitized guinea-pigs; settings: administered intratracheally; cited from earlier work

Q: What does the source list for `O=C(OC(c1cccc(F)c1)c1cccc(F)c1)O[C@H]1C[N+]2(CC(=O)c3cccs3)CCC1CC2.[Cl-]` [Compound Ia]?
A: number of cough efforts induced by citric acid (statistical significance) ([1]; 1 mM by aerosol, 3 hours before citric acid 0.25 M): significantly reduced; percentage (%) reduction of number of coughs ([1]; control, non-sensitized animals, 1 mM by aerosol, 3 hours before citric acid 0.25 M): 17.4±6.4%; percentage (%) reduction of number of coughs ([1]; ovalbumin-sensitized animals, 1 mM by aerosol, 3 hours before citric acid 0.25 M): 37.2±5.9%

Q: With `CC(C)[N+]1(C)[C@@H]2CC[C@H]1C[C@@H](OC(=O)C(CO)c1ccccc1)C2` (stereo partly drawn) [ipratropium bromide] as the compound, how does the “suppression of subjectively described postviral coughing” value (postviral coughing) read?
A: Its value is “effective”.

Q: Which “number of cough efforts induced by citric acid (statistical significance)” value ([1]; 0.3 mM by aerosol, 3 hours before, both animal groups) does the source give for `C[N+]1(C)[C@@H]2C[C@@H](OC(=O)C(O)(c3cccs3)c3cccs3)C[C@H]1[C@@H]1O[C@@H]12` [tiotropium bromide] here?
A: Its value is “did not reach a statistical significance”.

Q: And the “percentage (%) of reduction of number of cough efforts” value ([1]; control animals, 0.3 mM by aerosol, 3 hours before citric acid 0.25 M)?
A: Its value is 20.2±9.9%.

Q: What about the “percentage (%) of reduction of number of cough efforts” value ([1]; ovalbumin-sensitized animals, 0.3 mM by aerosol, 3 hours before citric acid 0.25 M) of the same compound?
A: Its value is 28.1±11%.

Q: And the “cough reflex sensitivity to inhaled capsaicin” value [2]?
A: Its value is “capable of inhibiting cough reflex sensitivity”.

Q: And the “cough elicited by inhalation of citric acid” value [3]?
A: The value was “able to reduce cough”.
